melting point	SMILES
206 to 206.5 °C	CN1C(=NC2CCCCC2)SCC1CC(=O)NCc1ccccc1.Cl (stereo not shown)
210 to 211 °C	COc1ccc(NC(=O)CC2CSC(=NC3CCCC3)N2C)cc1.Cl (stereo not shown)
185 to 186.5 °C	Cc1ccc(NC(=O)CC2CSC(=NC3CCCC3)N2C)c(Cl)c1.Cl (stereo not shown)
189 to 190 °C	Cc1ccc(NC(=O)CC2CSC(=NC3CCCC3)N2C)c(F)c1.Cl (stereo not shown)
219 to 220 °C	CCOc1ccc(NC(=O)CC2CSC(=NC3CC3)N2C)cc1.Cl (stereo not shown)
245 to 245.5 °C	CN1C(=NC2CC2)SCC1CC(=O)Nc1ccc(CC#N)cc1.Cl (stereo not shown)
212 to 212.5 °C	Cc1ccc(NC(=O)CC2CSC(=NC3CC3)N2C)c(Cl)c1.Cl (stereo not shown)
260.5 to 261 °C	CN1C(=NC2CC2)SCC1CC(=O)Nc1cc(Cl)cc(Cl)c1.Cl (stereo not shown)
233.5 to 234.5 °C	CN1C(=NC2CC2)SCC1CC(=O)Nc1cc(Cl)ccc1F.Cl (stereo not shown)
240.5 to 241 °C	CN1C(=NC2CC2)SCC1CC(=O)Nc1ccccc1.Cl (stereo not shown)
238 to 238.5 °C	CC(C)c1ccc(NC(=O)CC2CSC(=NC3CC3)N2C)cc1.Cl (stereo not shown)
225.5 to 227 °C	CN1C(=NC2CC2)SCC1CC(=O)NCc1ccc(Cl)cc1.Cl (stereo not shown)
220.5 to 222 °C	COc1ccc(CNC(=O)CC2CSC(=NC3CC3)N2C)cc1.Cl (stereo not shown)
160.5 to 162 °C	CN1C(=NC2CCCC2)SCC1CC(=O)NCc1ccc(F)cc1.Cl (stereo not shown)
172 to 173.5 °C	COc1ccc(CNC(=O)CC2CSC(=NC3CCCC3)N2C)cc1.Cl (stereo not shown)
218.3 °C	CCN1C(=NC2CCCCC2)SCC1CC(=O)Nc1ccc(Cl)cc1.Cl (stereo not shown)
243.4 °C	CCCN1C(=NC2CCCCC2)SCC1CC(=O)Nc1cc(C(F)(F)F)cc(C(F)(F)F)c1.Cl (stereo not shown)
234.6 °C	Cl.O=C(CC1CSC(=NC2CCCCC2)N1Cc1ccccc1)Nc1cc(C(F)(F)F)cc(C(F)(F)F)c1 (stereo not shown)
199.7 °C	CC(C)c1ccc(NC(=O)CC2CSC(=NC3CCCCC3)N2C2CCCCC2)cc1.Cl (stereo not shown)

melting point	SMILES
158 °C	Cl.O=C(CC1CSC(=NC2CCCCC2)N1C1CCCCC1)Nc1cc(Cl)ccc1F (stereo not shown)
244 °C	CC(C)(C)c1ccc(NC(=O)CC2CSC(=NC3CCCCC3)N2C2CCCCC2)cc1.Cl (stereo not shown)
231 to 234 °C	CC1SC(=NC2CCCCC2)N(C)C1CC(=O)Nc1ccccc1.Cl (stereo not shown)
228 to 229 °C	Cc1ccc(NC(=O)CC2C(C)SC(=NC3CCCC3)N2C)cc1.Cl (stereo not shown)
215 to 217 °C	CC1SC(=NC2CCCCC2)N(C)C1CC(=O)Nc1ccc([N+](=O)[O-])cc1.Cl (stereo not shown)
275.2 °C	Br.CN1C(=NC2CCCCCC2)SCC1C(=O)Nc1cc(Cl)cc(Cl)c1 (stereo not shown)
286.5 °C	Br.CN1C(=NC2CCCCCC2)SCC1C(=O)Nc1ccc(Cl)cc1 (stereo not shown)
240.8 °C	Br.CCCCc1ccc(NC(=O)C2CSC(=NC3CCCCCC3)N2C)cc1 (stereo not shown)
282.2 °C	Br.CC(C)c1ccc(NC(=O)C2CSC(=NC3CCCCCC3)N2C)cc1 (stereo not shown)
149.5 °C	Br.CN1C(=NC2CCCCCC2)SCC1C(=O)Nc1ccc(Oc2ccccc2)cc1 (stereo not shown)
274.1 °C	Br.CN1C(=NC2CCCCCC2)SCC1C(=O)Nc1cc(C(F)(F)F)cc(C(F)(F)F)c1 (stereo not shown)
252 °C	CCCCN1C(=NC23CC4CC(CC(C4)C2)C3)SCC1CC(=O)Nc1cc(CF)cc(CF)c1.Cl (stereo not shown)
245 °C	CC(C)c1ccc(NC(=O)CC2CSC(=NC3C4CC5CC(C4)CC3C5)N2C)cc1.Cl (stereo not shown)
258 to 260 °C	COc1ccc(NC(=O)CC2C(C)SC(=NC3CCCCC3)N2C)cc1 (stereo not shown) [KHG24481, (2-cyclohexylimino-3,5-dimethyl-1,3-thiazolidine-4-yl)-N-(4-methoxyphenyl)-acetamide]
250 to 251 °C	COc1ccc(NC(=O)CC2C(C)SC(=NC3CCCCCC3)N2C)cc1 (stereo not shown) [KHG24485, (2-cycloheptylimino-3,5-dimethyl-1,3-thiazolidine-4-yl)-N-(4-methoxyphenyl)-acetamide]
151.1 °C	CN1C(=NC2CCCCCC2)SCC1C(=O)Nc1cc([N+](=O)[O-])ccc1F (stereo not shown) [KHG24661, (2-cycloheptylimino-3-methyl-1,3-thiazolidine-4-yl)-N-(2-fluoro-5-nitrophenyl)-carboxamide]
194 to 195 °C	CCc1ccc(NC(=O)C2CSC(=NC3CCCCCC3)N2C)cc1 (stereo not shown) [KHG24664, (2-cycloheptylimino-3-methyl-1,3-thiazolidine-4-yl)-N-(4-ethylphenyl)-carboxamide]
191.2 °C	CN1C(=NC2CCCCCC2)SCC1C(=O)Nc1cc(Cl)cc(Cl)c1 (stereo not shown) [KHG24674, (2-cycloheptylimino-3-methyl-1,3-thiazolidine-4-yl)-N-(3,5-dichlorophenyl)-carboxamide]
207.6 °C	CC(C)c1ccc(NC(=O)C2CSC(=NC3CCCCCC3)N2C)cc1 (stereo not shown) [KHG24680, (2-cycloheptylimino-3-methyl-1,3-thiazolidine-4-yl)-N-(4-isopropylphenyl)-carboxamide]

The next lines start with the compound.

SMILES	melting point
CN1C(=NC2CCCC2)SCC1CC(=O)Nc1ccc(CC#N)cc1.Cl (stereo not shown)	199.5 to 200 °C
CN1C(=NC2CCCC2)SCC1CC(=O)Nc1ccc(F)cc1F.Cl (stereo not shown)	240 to 242.5 °C
CN1C(=NC2CCCC2)SCC1CC(=O)Nc1ccccc1.Cl (stereo not shown)	231.5 to 233 °C
COc1ccc(CNC(=O)CC2CSC(=NC3CCCCC3)N2C)cc1.Cl (stereo not shown)	193 to 195 °C
CN1C(=NC2CC2)SCC1CC(=O)Nc1ccc(F)cc1.Cl (stereo not shown)	252 to 253.5 °C
CN1C(=NC2CC2)SCC1CC(=O)Nc1ccc(F)cc1Cl.Cl (stereo not shown)	237 to 239 °C
CN1C(=NC2CC2)SCC1CC(=O)Nc1ccc(Br)cc1.Cl (stereo not shown)	227 to 228.5 °C
Cc1ccc(NC(=O)CC2CSC(=NC3CC3)N2C)c(F)c1.Cl (stereo not shown)	199.5 to 200.5 °C
CN1C(=NC2CC2)SCC1CC(=O)Nc1ccc(F)cc1F.Cl (stereo not shown)	245 to 246 °C
CN1C(=NC2CC2)SCC1CC(=O)Nc1cc([N+](=O)[O-])ccc1F.Cl (stereo not shown)	237.5 to 238 °C
CN1C(=NC2CC2)SCC1CC(=O)Nc1ccc(Cl)cc1F.Cl (stereo not shown)	237 to 237.5 °C
CN1C(=NC2CC2)SCC1CC(=O)Nc1ccc(Cl)cc1.Cl (stereo not shown)	241.5 to 242.5 °C
CN1C(=NC2CC2)SCC1CC(=O)NCc1ccc(F)cc1.Cl (stereo not shown)	200.5 to 202.5 °C
CN1C(=NCC2CCCCC2)SCC1CC(=O)Nc1ccc(Oc2ccccc2)cc1.Cl (stereo not shown)	250.8 °C
Cc1ccc(NC(=O)CC2CSC(=NC3CCCCC3)N2C2CC2)cc1.Cl (stereo not shown)	216.4 °C
Cl.O=C(CC1CSC(=NC2CCCCC2)N1Cc1ccccc1)Nc1ccc(Oc2ccccc2)cc1 (stereo not shown)	209.5 °C
Cl.O=C(CC1CSC(=NC2CCCCC2)N1Cc1ccccc1)Nc1cc([N+](=O)[O-])ccc1F (stereo not shown)	166.4 °C
Cl.O=C(CC1CSC(=NC2CCCCC2)N1C1CCCCC1)Nc1ccc(F)cc1 (stereo not shown)	256 °C
Cc1ccc(NC(=O)CC2CSC(=NC3CCCCC3)N2C2CCCCC2)cc1Cl.Cl (stereo not shown)	173 °C
Cl.O=C(CC1CSC(=NC2CCCCC2)N1C1CCCCC1)NCc1ccc(Cl)cc1 (stereo not shown)	152 °C
Cl.O=C(CC1CSC(=NC2CCCCC2)N1C1CCCCC1)Nc1cc(Cl)cc(Cl)c1 (stereo not shown)	202 °C

SMILES	melting point
CN1C(=NC2CCCCCC2)SCC1C(=O)Nc1ccccc1.Cl (stereo not shown)	211.4 °C
CC1SC(=NC2CCCCC2)N(C)C1CC(=O)Nc1ccc(C(C)(C)C)cc1.Cl (stereo not shown)	255 to 257 °C
CC1SC(=NC2CCCC2)N(C)C1CC(=O)Nc1ccccc1.Cl (stereo not shown)	186 to 188 °C
CC1SC(=NC2CCCC2)N(C)C1CC(=O)Nc1ccccc1F.Cl (stereo not shown)	153 °C
Br.CN1C(=NC2CCCCCC2)SCC1C(=O)Nc1cc([N+](=O)[O-])ccc1F (stereo not shown)	264.8 °C
CN1C(=NC2CCCCCC2)SCC1C(=O)Nc1ccc(F)cc1.Cl (stereo not shown)	265.3 °C
Br.CCc1ccc(NC(=O)C2CSC(=NC3CCCCCC3)N2C)cc1 (stereo not shown)	278 to 279 °C
Br.Cc1ccc(NC(=O)C2CSC(=NC3CCCCCC3)N2C)cc1 (stereo not shown)	278.9 °C
Br.CN1C(=NC2CCCCCC2)SCC1C(=O)Nc1ccc(C(C)(C)C)cc1 (stereo not shown)	169.9 °C
Br.CN1C(=NC2CCCCCC2)SCC1C(=O)Nc1cc(Cl)ccc1F (stereo not shown)	262.2 °C
CCCCN1C(=NC23CC4CC(CC(C4)C2)C3)SCC1CC(=O)Nc1cc(Cl)cc(Cl)c1.Cl (stereo not shown)	164 °C
CCCCN1C(=NC23CC4CC(CC(C4)C2)C3)SCC1CC(=O)Nc1ccc(Oc2ccccc2)cc1.Cl (stereo not shown)	127 °C
CCCCc1ccc(NC(=O)CC2CSC(=NC34CC5CC(CC(C5)C3)C4)N2C(C)C)cc1.Cl (stereo not shown)	178 °C
CCCCc1ccc(NC(=O)CC2CSC(=NC3C4CC5CC(C4)CC3C5)N2C)cc1.Cl (stereo not shown)	127 °C
CN1C(=NC2CCCCC2)SCC1CC(=O)Nc1ccc2c(c1)OCO2.Cl (stereo not shown) (hydrate or solvate) [KHG24086, (2-cyclohexylimino-3-methyl-1,3-thiazolidine-4-yl)-N-(3,4-methylenedioxyphenyl)-acetamide hydrochloride]	146 to 147 °C
CN1C(=NC2CCCCCC2)SCC1C(=O)Nc1ccccc1 (stereo not shown) [KHG24622, (2-cycloheptylimino-3-methyl-1,3-thiazolidine-4-yl)-N-phenyl-carboxamide]	208 °C
CN1C(=NC2CCCCCC2)SCC1C(=O)Nc1ccccc1Cl (stereo not shown) [KHG24624, (2-cycloheptylimino-3-methyl-1,3-thiazolidine-4-yl)-N-(2-chlorophenyl)-carboxamide]	198.4 °C
CN1C(=NC2CCCCCC2)SCC1C(=O)Nc1cc(F)ccc1F (stereo not shown) [KHG24625, (2-cycloheptylimino-3-methyl-1,3-thiazolidine-4-yl)-N-(2,5-difluorophenyl)-carboxamide]	184.2 °C
CN1C(=NC2CCCCCC2)SCC1C(=O)Nc1ccc(F)cc1 (stereo not shown) [KHG24631, (2-cycloheptylimino-3-methyl-1,3-thiazolidine-4-yl)-N-(4-fluorophenyl)-carboxamide]	169.6 °C
CN1C(=NC2CCCCCC2)SCC1C(=O)Nc1ccc(Cl)cc1 (stereo not shown) [KHG24677, (2-cycloheptylimino-3-methyl-1,3-thiazolidine-4-yl)-N-(4-chlorophenyl)-carboxamide]	199.7 °C
